In US10752624B2, “Kinase inhibitors” (Origenis GmbH, priority 2012, dated 2020):

What was measured:
LRRK2 = LRRK2 (Homo sapiens, UniProt Q5S007); assay: LRRK2-LRRK2 G2019S-Assay (LanthaScreen Eu Kinase Binding Assay); details: 5 nM LRRK2, 10 nM tracer 236, 2 nM EU-Anti-GST antibody, 1 h at RT; read-out: LRRK2 Activities: IC50
Summary of the method: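 Compound competition with Alexa Fluor 647 tracer 236 (10 nM) was measured after 1 h at room temperature, using 5 nM LRRK2 (wild type or mutant) bound to 2 nM Eu-anti-GST antibody. IC50 was derived from the acceptor/donor (665/615 nm) ratio using a variable-slope dose-response fit.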

SYK kinase = target: T1, SYK kinase (Homo sapiens, UniProt P43405); assay: SYK Assay (OMNIA Kinase Assay, SOX peptide fluorescence); format: biochemical; details: 1 mM ATP, 10 μM Omnia Peptide Substrate Tyr 7, 30° C., readings for 30 minutes; read-out: SYK Activities: IC50
T1 construct: purchased Invitrogen, Carlsbad
Summary of the method: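 The reaction was run at 30 °C with 1 mM ATP, 0.2 mM DTT and 10 μM Omnia Tyr 7 peptide (final) and started by adding SYK. Chelation-enhanced SOX fluorescence (ex 360/em 485 nm) was read every 30 s for 30 min. Reaction velocity versus inhibitor concentration was fitted sigmoidally for IC50.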

Chain of LRRK2 (Q5S007 970-2527 limits assumed): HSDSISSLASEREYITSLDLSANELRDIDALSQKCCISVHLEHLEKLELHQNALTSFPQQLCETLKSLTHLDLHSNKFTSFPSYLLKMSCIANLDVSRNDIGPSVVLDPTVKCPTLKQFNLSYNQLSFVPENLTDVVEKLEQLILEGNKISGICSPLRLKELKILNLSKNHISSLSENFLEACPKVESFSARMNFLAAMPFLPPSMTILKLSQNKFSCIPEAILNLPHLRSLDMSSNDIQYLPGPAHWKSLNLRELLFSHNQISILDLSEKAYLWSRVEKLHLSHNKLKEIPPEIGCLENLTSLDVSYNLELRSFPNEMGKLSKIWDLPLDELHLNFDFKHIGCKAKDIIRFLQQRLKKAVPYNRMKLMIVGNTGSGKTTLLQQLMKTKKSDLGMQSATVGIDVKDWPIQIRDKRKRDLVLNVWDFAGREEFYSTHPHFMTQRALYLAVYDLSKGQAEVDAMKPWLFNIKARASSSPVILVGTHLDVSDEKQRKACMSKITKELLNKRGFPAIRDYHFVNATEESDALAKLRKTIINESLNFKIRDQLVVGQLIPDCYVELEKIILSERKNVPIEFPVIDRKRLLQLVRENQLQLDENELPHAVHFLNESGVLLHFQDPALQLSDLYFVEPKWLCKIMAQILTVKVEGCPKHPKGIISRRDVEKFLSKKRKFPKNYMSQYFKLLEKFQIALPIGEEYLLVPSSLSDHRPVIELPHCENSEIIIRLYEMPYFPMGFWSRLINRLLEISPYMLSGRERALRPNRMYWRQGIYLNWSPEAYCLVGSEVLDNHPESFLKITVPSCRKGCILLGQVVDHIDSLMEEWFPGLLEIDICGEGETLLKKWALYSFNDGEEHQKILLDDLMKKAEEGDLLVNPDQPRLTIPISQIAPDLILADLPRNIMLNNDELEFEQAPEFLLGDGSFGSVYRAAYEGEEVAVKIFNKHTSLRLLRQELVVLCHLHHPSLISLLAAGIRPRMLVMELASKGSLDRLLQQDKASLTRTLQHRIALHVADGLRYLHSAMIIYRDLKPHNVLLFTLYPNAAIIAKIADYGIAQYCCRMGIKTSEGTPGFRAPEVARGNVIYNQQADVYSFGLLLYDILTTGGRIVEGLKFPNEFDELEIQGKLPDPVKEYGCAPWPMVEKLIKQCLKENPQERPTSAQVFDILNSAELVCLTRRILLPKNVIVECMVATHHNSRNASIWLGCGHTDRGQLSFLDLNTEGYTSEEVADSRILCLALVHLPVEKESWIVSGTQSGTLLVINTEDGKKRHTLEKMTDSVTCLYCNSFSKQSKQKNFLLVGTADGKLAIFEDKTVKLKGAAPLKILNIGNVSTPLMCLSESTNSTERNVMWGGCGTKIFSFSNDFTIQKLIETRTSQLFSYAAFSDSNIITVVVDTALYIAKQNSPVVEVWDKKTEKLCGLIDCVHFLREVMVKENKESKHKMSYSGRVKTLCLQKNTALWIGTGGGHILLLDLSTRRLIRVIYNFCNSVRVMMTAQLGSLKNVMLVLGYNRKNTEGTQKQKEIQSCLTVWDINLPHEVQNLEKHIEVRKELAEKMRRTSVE

IC50 (LRRK2) | IC50 (SYK kinase) | Compound
< 10 nM | 10 to 100 nM | CC(C)=Cn1cc(Nc2nc3ccc(S(C)(=O)=O)cc3c3cn[nH]c23)cn1 [Example 263, N-(1-(2-methylprop-1-en-1-yl)-1H-pyrazol-4-yl)-8-(methylsulfonyl)-3H-pyrazolo[3,4-c]quinolin-4-amine]
< 10 nM | 10 to 100 nM | C=C(C)Cn1cc(Nc2nc3ccc(S(C)(=O)=O)cc3c3cn[nH]c23)cn1 [Example 264, N-(1-(2-methylallyl)-1H-pyrazol-4-yl)-8-(methylsulfonyl)-3H-pyrazolo[3,4-c]quinolin-4-amine]
10 to 100 nM | 100 to 1000 nM | COc1ccc2nc(Nc3cnn(CC(C)C)c3)c3[nH]ncc3c2c1 [Example 285, N-(1-isobutyl-1H-pyrazol-4-yl)-8-methoxy-3H-pyrazolo[3,4-c]quinolin-4-amine]
< 10 nM | 100 to 1000 nM | COc1ccc2nc(Nc3cnn(C(C)(C)C)c3)c3[nH]ncc3c2c1 [Example 286, N-(1-(tert-butyl)-1H-pyrazol-4-yl)-8-methoxy-3H-pyrazolo[3,4-c]quinolin-4-amine]
< 10 nM | 10 to 100 nM | COCCCn1cc(Nc2nc3ccc(OC)cc3c3cn[nH]c23)cn1 [Example 287, 8-methoxy-N-(1-(3-methoxypropyl)-1H-pyrazol-4-yl)-3H-pyrazolo[3,4-c]quinolin-4-amine]
10 to 100 nM | 100 to 1000 nM | COc1cc(OC)c2nc(Nc3ccc(N4CCOCC4)cc3)c3[nH]ncc3c2c1 [Example 288, 6,8-dimethoxy-N-(4-morpholinophenyl)-3H-pyrazolo[3,4-c]quinolin-4-amine]
10 to 100 nM | 100 to 1000 nM | COc1cc(OC)c2nc(Nc3cnn(C4CCOCC4)c3)c3[nH]ncc3c2c1 [Example 289, 6,8-dimethoxy-N-(1-(tetrahydro-2H-pyran-4-yl)-1H-pyrazol-4-yl)-3H-pyrazolo[3,4-c]quinolin-4-amine]
10 to 100 nM | 100 to 1000 nM | COCCCn1cc(Nc2nc3c(OC)cc(OC)cc3c3cn[nH]c23)cn1 [Example 290, 6,8-dimethoxy-N-(1-(3-methoxypropyl)-1H-pyrazol-4-yl)-3H-pyrazolo[3,4-c]quinolin-4-amine]
10 to 100 nM | 10 to 100 nM | COc1ccc2nc(Nc3cnn(C(C)C)c3)c3[nH]ncc3c2c1 [Example 292, N-(1-isopropyl-1H-pyrazol-4-yl)-8-methoxy-3H-pyrazolo[3,4-c]quinolin-4-amine]
10 to 100 nM | 10 to 100 nM | COc1ccc2nc(Nc3cnn(C4CC4)c3)c3[nH]ncc3c2c1 [Example 293, N-(1-cyclopropyl-1H-pyrazol-4-yl)-8-methoxy-3H-pyrazolo[3,4-c]quinolin-4-amine]
10 to 100 nM | 10 to 100 nM | COc1ccc2nc(Nc3ccc(N4CCN(CCO)CC4)cc3)c3[nH]ncc3c2c1 [Example 297, 2-(4-(4-((8-methoxy-3H-pyrazolo[3,4-c]quinolin-4-yl)amino)phenyl)piperazin-1-yl)ethan-1-ol]
10 to 100 nM | 100 to 1000 nM | COc1ccc2nc(Nc3cnn(CC(C)(C)O)c3)c3[nH]ncc3c2c1 [Example 298, 1-(4-((8-methoxy-3H-pyrazolo[3,4-c]quinolin-4-yl)amino)-1H-pyrazol-1-yl)-2-methylpropan-2-ol]
10 to 100 nM | 100 to 1000 nM | COc1ccc2nc(Nc3cnn(C4CCN(C(C)(C)C)CC4)c3)c3[nH]ncc3c2c1 [Example 300, N-(1-(1-(tert-butyl)piperidin-4-yl)-1H-pyrazol-4-yl)-8-methoxy-3H-pyrazolo[3,4-c]quinolin-4-amine]
< 10 nM | 10 to 100 nM | COc1ccc2nc(Nc3cnn(C(C)(C)C#N)c3)c3[nH]ncc3c2c1 [Example 301, 2-(4-((8-methoxy-3H-pyrazolo[3,4-c]quinolin-4-yl)amino)-1H-pyrazol-1-yl)-2-methylpropanenitrile]
100 to 1000 nM | 100 to 1000 nM | COc1ccc(Nc2nc3cc(S(C)(=O)=O)ccc3c3cn[nH]c23)cc1OC [Example 302, N-(3,4-dimethoxyphenyl)-7-(methylsulfonyl)-3H-pyrazolo[3,4-c]quinolin-4-amine]
100 to 1000 nM | 10 to 100 nM | CS(=O)(=O)c1ccc2c(c1)nc(Nc1ccc(N3CCN(CCO)CC3)cc1)c1[nH]ncc12 [Example 303, 2-(4-(4-((7-(methylsulfonyl)-3H-pyrazolo[3,4-c]quinolin-4-yl)amino)phenyl)piperazin-1-yl)ethan-1-ol]
100 to 1000 nM | 100 to 1000 nM | COc1cccc2c1nc(Nc1cnn(C3CCOCC3)c1)c1[nH]ncc12 [Example 307, 6-methoxy-N-(1-(tetrahydro-2H-pyran-4-yl)-1H-pyrazol-4-yl)-3H-pyrazolo[3,4-c]quinolin-4-amine]

IC50 (LRRK2) | IC50 (SYK kinase) | Compound
< 10 nM | 10 to 100 nM | CS(=O)(=O)c1ccc2nc(Nc3ccc(N4CCN(CCO)CC4)cc3)c3[nH]ncc3c2c1 [Example 309, 2-(4-(4-((8-(methylsulfonyl)-3H-pyrazolo[3,4-c]quinolin-4-yl)amino)phenyl)piperazin-1-yl)ethan-1-ol]
10 to 100 nM | 100 to 1000 nM | COc1ccc2nc(Nc3cnn(CC(=O)N(C)C)c3)c3n[nH]cc3c2c1 [Example 311, 2-(4-((8-methoxy-2H-pyrazolo[3,4-c]quinolin-4-yl)amino)-1H-pyrazol-1-yl)-N,N-dimethylacetamide]
10 to 100 nM | < 10 nM | COc1ccc2nc(Nc3cnn(C4CCNC4)c3)c3n[nH]cc3c2c1 (stereo not drawn) [Example 312, 8-methoxy-N-(1-(pyrrolidin-3-yl)-1H-pyrazol-4-yl)-2H-pyrazolo[3,4-c]quinolin-4-amine]
10 to 100 nM | 100 to 1000 nM | COCC(COC)n1cc(Nc2nc3ccc(OC)cc3c3c[nH]nc23)cn1 [Example 313, N-(1-(1,3-dimethoxypropan-2-yl)-1H-pyrazol-4-yl)-8-methoxy-2H-pyrazolo[3,4-c]quinolin-4-amine]
10 to 100 nM | 10 to 100 nM | COc1ccc2nc(Nc3cnn(C4CCCOC4)c3)c3n[nH]cc3c2c1 (stereo not drawn) [Example 314, 8-methoxy-N-(1-(tetrahydro-2H-pyran-3-yl)-1H-pyrazol-4-yl)-2H-pyrazolo[3,4-c]quinolin-4-amine]
10 to 100 nM | 10 to 100 nM | COC(C)(C)Cn1cc(Nc2nc3ccc(S(C)(=O)=O)cc3c3cn[nH]c23)cn1 [Example 315, N-(1-(2-methoxy-2-methylpropyl)-1H-pyrazol-4-yl)-8-(methylsulfonyl)-3H-pyrazolo[3,4-c]quinolin-4-amine]
10 to 100 nM | 10 to 100 nM | CS(=O)(=O)c1ccc2nc(Nc3ccc(N4CCC(O)CC4)cc3)c3[nH]ncc3c2c1 [Example 316, 1-(4-((8-(methylsulfonyl)-3H-pyrazolo[3,4-c]quinolin-4-yl)amino)phenyl)piperidin-4-ol]
10 to 100 nM | 100 to 1000 nM | COc1ccc2nc(Nc3cnn(C(C)C(C)C)c3)c3n[nH]cc3c2c1 (stereo not drawn) [Example 321, 8-methoxy-N-(1-(3-methylbutan-2-yl)-1H-pyrazol-4-yl)-2H-pyrazolo[3,4-c]quinolin-4-amine]
10 to 100 nM | 10 to 100 nM | CS(=O)(=O)c1ccc2nc(Nc3cnn(C4CCCOC4)c3)c3n[nH]cc3c2c1 (stereo not drawn) [Example 323, 8-(methylsulfonyl)-N-(1-(tetrahydro-2H-pyran-3-yl)-1H-pyrazol-4-yl)-2H-pyrazolo[3,4-c]quinolin-4-amine]
< 10 nM | 10 to 100 nM | CC(C)C(C)n1cc(Nc2nc3ccc(S(C)(=O)=O)cc3c3c[nH]nc23)cn1 (stereo not drawn) [Example 324, N-(1-(3-methylbutan-2-yl)-1H-pyrazol-4-yl)-8-(methylsulfonyl)-2H-pyrazolo[3,4-c]quinolin-4-amine]
< 10 nM | < 10 nM | CS(=O)(=O)c1ccc2nc(Nc3cnn(C4CCNC4)c3)c3n[nH]cc3c2c1 (stereo not drawn) [Example 327, 8-(methylsulfonyl)-N-(1-(pyrrolidin-3-yl)-1H-pyrazol-4-yl)-2H-pyrazolo[3,4-c]quinolin-4-amine]
10 to 100 nM | 100 to 1000 nM | CN1C(=O)COc2ccc(Nc3nc4ccc(S(C)(=O)=O)cc4c4c[nH]nc34)cc21 [Example 328, 4-methyl-6-((8-(methylsulfonyl)-2H-pyrazolo[3,4-c]quinolin-4-yl)amino)-2H-benzo[b][1,4]oxazin-3(4H)-one]
100 to 1000 nM | 10 to 100 nM | CC(C)(O)Cn1cc(Nc2nc3cc(S(C)(=O)=O)ccc3c3cn[nH]c23)cn1 [Example 329, 2-methyl-1-(4-((7-(methylsulfonyl)-3H-pyrazolo[3,4-c]quinolin-4-yl)amino)-1H-pyrazol-1-yl)propan-2-ol]
10 to 100 nM | 100 to 1000 nM | CC(=O)Nc1cccc(Nc2nc3ccc(S(C)(=O)=O)cc3c3c[nH]nc23)c1 [Example 331, N-(3-((8-(methylsulfonyl)-2H-pyrazolo[3,4-c]quinolin-4-yl)amino)phenyl)acetamide]
10 to 100 nM | 10 to 100 nM | COc1ccc(Nc2nc3ccc(S(C)(=O)=O)cc3c3c[nH]nc23)cc1NC(C)=O [Example 332, N-(2-methoxy-5-((8-(methylsulfonyl)-2H-pyrazolo[3,4-c]quinolin-4-yl)amino)phenyl)acetamide]
10 to 100 nM | 100 to 1000 nM | CCc1cccc(Nc2nc3ccc(S(C)(=O)=O)cc3c3c[nH]nc23)c1 [Example 333, N-(3-ethylphenyl)-8-(methylsulfonyl)-2H-pyrazolo[3,4-c]quinolin-4-amine]
